Measured values taken from US12617783B2, “Heterocyclic GLP-1R agonists” (BIOMEA FUSION, INC., priority 2024, dated 2026).

Target: T1, human GLP-1R (Homo sapiens, UniProt P43220)
T1 construct: host or cells: HEK293
Test: GLP-1R cAMP assay (Example B1a, HTRF, 30 min at room temperature)
Type: cell-based
Settings: cAMP accumulation in HEK293 expressing human GLP-1R, no BETP, 30 min room temperature (Method B1a, compounds ID 1-609), Table 1; read-out: EC50
Summary of the method: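 Competitive HTRF read-out of cAMP after 30 min room-temperature stimulation, BETP absent, of human GLP-1R-HEK293 cells (1,000/well) in HEPES buffer with 500 μM IBMX and 0.1% BSA. Activation normalised to GLP-1(7-37) positive control. EC50 from 4-parameter non-linear regression.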

T1 sequence (P43220 24-463): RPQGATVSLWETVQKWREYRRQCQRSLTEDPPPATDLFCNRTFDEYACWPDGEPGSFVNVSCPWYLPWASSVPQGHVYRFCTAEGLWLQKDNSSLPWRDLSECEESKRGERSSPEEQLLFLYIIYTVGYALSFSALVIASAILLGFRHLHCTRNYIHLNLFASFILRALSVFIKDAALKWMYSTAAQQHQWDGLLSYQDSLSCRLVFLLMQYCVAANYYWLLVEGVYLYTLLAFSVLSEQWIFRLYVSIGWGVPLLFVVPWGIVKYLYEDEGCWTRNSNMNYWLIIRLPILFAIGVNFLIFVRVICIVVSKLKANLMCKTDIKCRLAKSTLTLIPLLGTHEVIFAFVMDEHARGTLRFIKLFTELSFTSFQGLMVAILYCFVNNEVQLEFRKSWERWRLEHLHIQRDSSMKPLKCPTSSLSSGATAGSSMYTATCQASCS

| EC50 [µM] | SMILES |
| --- | --- |
| 0.839 | Cc1cc(-n2nc3c(c2-n2ccn(-c4ccc5c(cnn5C)c4F)c2=O)[C@@H]2CCC[C@H](C3)N2S(=O)(=O)c2cc3cc([C@@H]4CCOC5(CC5)C4)ccc3n2[C@@]2(c3noc(=O)[nH]3)C[C@@H]2C)cc(C)c1F [Compound 604, 3-[(1S,2S)-1-[2-[[(1S,8R)-4-(4-fluoro-3,5-dimethyl-phenyl)-3-[3-(4-fluoro-1-methyl-indazol-5-yl)-2-oxo-imidazol-1-yl]-4,5,12-triazatricyclo[6.3.1.02,6]dodeca-2,5-dien-12-yl]sulfonyl]-5-[(7R)-4-oxaspiro[2.5]octan-7-yl]indol-1-yl]-2-methyl-cyclopropyl]-4H-1,2,4-oxadiazol-5-one] |
| ≥ 10 | Cc1cc(-n2nc3c(c2-n2ccn(-c4ccc5ccncc5c4F)c2=O)[C@@H]2CCC[C@H](C3)N2S(=O)(=O)c2cc3cc([C@H]4CCOC(C)(C)C4)ccc3n2[C@]2(c3noc(=O)[nH]3)C[C@@H]2C)cc(C)c1F [Compound 605, 3-[(1R,2S)-1-[5-[(4S)-2,2-dimethyltetrahydropyran-4-yl]-2-[[(1S,8R)-4-(4-fluoro-3,5-dimethyl-phenyl)-3-[3-(8-fluoro-7-isoquinolyl)-2-oxo-imidazol-1-yl]-4,5,12-triazatricyclo[6.3.1.02,6]dodeca-2,5-dien-12-yl]sulfonyl]indol-1-yl]-2-methyl-cyclopropyl]-4H-1,2,4-oxadiazol-5-one] |
| 0.0804 | Cc1cc(-n2nc3c(c2-n2ccn(-c4ccc5c(cnn5C)c4F)c2=O)[C@H](C)N(C(=O)c2cc4cc([C@H]5CCOC6(CC6)C5)ccc4n2[C@@]2(c4noc(=O)[nH]4)C[C@@H]2C)CCC3)cc(C)c1F [Compound 606, 3-((1S,2S)-1-(2-((S)-3-(3-(4-fluoro-1-methyl-1H-indazol-5-yl)-2-oxo-2,3-dihydro-1H-imidazol-1-yl)-2-(4-fluoro-3,5-dimethylphenyl)-4-methyl-2,4,5,6,7,8-hexahydropyrazolo[4,3-c]azepine-5-carbonyl)-5-((S)-4-oxaspiro[2.5]octan-7-yl)-1H-indol-1-yl)-2-methylcyclopropyl)-1,2,4-oxadiazol-5 (4H)-one] |
| 0.0537 | Cc1cc(-n2nc3c(c2-n2ccn(-c4ccc5c(cnn5C)c4F)c2=O)[C@H](C)N(C(=O)c2cc4cc(C5CCOCC5)ccc4n2[C@@]2(c4noc(=O)[nH]4)C[C@@H]2C)CCC3)cc(C)c1F [Compound 607, 3-((1S,2S)-1-(2-((S)-3-(3-(4-fluoro-1-methyl-1H-indazol-5-yl)-2-oxo-2,3-dihydro-1H-imidazol-1-yl)-2-(4-fluoro-3,5-dimethylphenyl)-4-methyl-2,4,5,6,7,8-hexahydropyrazolo[4,3-c]azepine-5-carbonyl)-5-(tetrahydro-2H-pyran-4-yl)-1H-indol-1-yl)-2-methylcyclopropyl)-1,2,4-oxadiazol-5 (4H)-one] |
| ≥ 10 | Cc1cc(-n2nc3c(c2-n2ccn(-c4ccc5c(cnn5C)c4F)c2=O)[C@@H]2CCC[C@H](C3)N2S(=O)(=O)c2cc3cc([C@H]4CCOC5(CC5)C4)ccc3n2[C@@]2(c3noc(=O)[nH]3)C[C@@H]2C)cc(C)c1F [Compound 608, 3-[(1S,2S)-1-[2-[[(1S,8R)-4-(4-fluoro-3,5-dimethyl-phenyl)-3-[3-(4-fluoro-1-methyl-indazol-5-yl)-2-oxo-imidazol-1-yl]-4,5,12-triazatricyclo[6.3.1.02,6]dodeca-2,5-dien-12-yl]sulfonyl]-5-[(7S)-4-oxaspiro[2.5]octan-7-yl]indol-1-yl]-2-methyl-cyclopropyl]-4H-1,2,4-oxadiazol-5-one] |
| ≥ 10 | Cc1cc(-n2nc3c(c2-n2ccn(-c4ccc5c(cnn5C)c4F)c2=O)[C@@H]2CCC[C@H](C3)N2S(=O)(=O)c2cc3cc([C@H]4CCOC5(CC5)C4)ccc3n2[C@]2(c3noc(=O)[nH]3)C[C@@H]2C)cc(C)c1F [Compound 609, 3-[(1R,2S)-1-[2-[[(1S,8R)-4-(4-fluoro-3,5-dimethyl-phenyl)-3-[3-(4-fluoro-1-methyl-indazol-5-yl)-2-oxo-imidazol-1-yl]-4,5,12-triazatricyclo[6.3.1.02,6]dodeca-2,5-dien-12-yl]sulfonyl]-5-[(7S)-4-oxaspiro [2.5]octan-7-yl]indol-1-yl]-2-methyl-cyclopropyl]-4H-1,2,4-oxadiazol-5-one] |

Target: T1, human GLP-1R
Test: GLP-1R cAMP assay (Example B1b, HTRF, 30 min at 37°)
Type: cell-based
Settings: cAMP accumulation in HEK293 expressing human GLP-1R, no BETP, 30 min at 37° (Method B1b), Table 1
Protocol: Assay was carried out with HEK293 expressing human GLP-1R using HTRF assay, developed by Wuxi Apptec. The method is a competitive assay between native cAMP produced by the cells and exogenous cAMP labeled with a proprietary dye d2. The tracer binding is visualized by a mAb anti-cAMP labeled with Cryptate. The signal (i.e. energy transfer) is inversely proportional to the concentration of CAMP in either standard or experimental sample. Compounds were tested in the absence of BETP. Ten microliter of cell suspension in assay buffer (5 mM HEPES, 500 μM IBMX, 0.1% BSA) were added to each well (1,000 cells per well) in a low volume 384-well plate for the assay. Serially diluted compounds were added in 100 nL volume to duplicate wells, by Labcyte Echo. GLP-1 (7-37) was used as positive control. Assay plate was incubated for 30 minutes at 37°. Stock of cAMP Detection Solution was prepared by mixing 38 parts of cAMP lysis buffer, 1 part of cAMP-D2, 1 part of anti-cAMP cryptate reagent (Cisbio #62AM4PEJ). Ten microliter of the cAMP Detection Solution was added to each well, and the assay plate was incubated for 1 hour at room temperature in the dark. Plates were read on Envision plate reader. The data were analyzed by ScreenUltra in Dotmatics, with % activation expressed using following formula: (Signal ratio […]*10000−negative control)/(postive control−negative control)*100. Dose response curves were plotted and EC50 values calculated by non-linear regression using 4-parameter fit. The potency (EC50) values for cAMP accumulation in HEK293 cells are reported in the Table 1 below (for compounds ID 610-708).

| SMILES | EC50 [µM] |
| --- | --- |
| Cc1cc(-n2nc3c(c2-n2ccn(-c4ccc5c(cnn5C)c4F)c2=O)[C@@H]2CC[C@H](C3)N2C(=O)c2c(F)c3cc(C4CCOC(C)(C)C4)ccc3n2[C@@]2(c3noc(=O)[nH]3)C[C@@H]2C)cc(C)c1F (stereo in doubt) [Compound 712, 3-[(1S,2S)-1-[5-[(4S)-2,2-dimethyltetrahydropyran-4-yl]-3-fluoro-2-[(1S,8R)-4-(4-fluoro-3,5-dimethyl-phenyl)-3-[3-(4-fluoro-1-methyl-indazol-5-yl)-2-oxo-imidazol-1-yl]-4,5,11-triazatricyclo[6.2.1.02,6]undeca-2,5-diene-11-carbonyl]indol-1-yl]-2-methyl-cyclopropyl]-4H-1,2,4-oxadiazol-5-one] | 0.112 |
| Cc1cc(-n2nc3c(c2-n2ccn(-c4ccc5c(cnn5C)c4F)c2=O)[C@@H]2CC[C@H](C3)N2C(=O)c2c(F)c3cc(C4CCOC(C)(C)C4)ccc3n2[C@@]2(c3noc(=O)[nH]3)C[C@@H]2C)cc(C)c1F (stereo in doubt) [Compound 713, 3-[(1S,2S)-1-[5-[(4R)-2,2-dimethyltetrahydropyran-4-yl]-3-fluoro-2-[(1S,8R)-4-(4-fluoro-3,5-dimethyl-phenyl)-3-[3-(4-fluoro-1-methyl-indazol-5-yl)-2-oxo-imidazol-1-yl]-4,5,11-triazatricyclo[6.2.1.02,6]undeca-2,5-diene-11-carbonyl]indol-1-yl]-2-methyl-cyclopropyl]-4H-1,2,4-oxadiazol-5-one] | 0.004 |

More lines, now with the values ahead:

| EC50 [µM] | SMILES |
| --- | --- |
| 0.0008 | Cc1cc(-n2nc3c(c2-n2ccn(-c4ccc5ccncc5c4F)c2=O)[C@@H]2CCC[C@H](C3)N2C(=O)c2cc3cc([C@H]4CCOC5(CC5)C4)ccc3n2[C@@]2(c3noc(=O)[nH]3)C[C@@H]2C)cc(C)c1F [Compound 610, 3-((1S,2S)-1-(2-((4S,8R)-2-(4-fluoro-3,5-dimethylphenyl)-3-(3-(8-fluoroisoquinolin-7-yl)-2-oxo-2,3-dihydro-1H-imidazol-1-yl)-4,5,6,7,8,9-hexahydro-2H-4,8-epiminocycloocta [c]pyrazole-10-carbonyl)-5-((S)-4-oxaspiro[2.5]octan-7-yl)-1H-indol-1-yl)-2-methylcyclopropyl)-1,2,4-oxadiazol-5 (4H)-one] |
| 0.0051 | CNC(=O)Cc1ccc(-n2ccn(-c3c4c(nn3-c3cc(C)c(F)c(C)c3)C[C@H]3CCC[C@@H]4N3C(=O)c3cc4cc([C@H]5CCOC(C)(C)C5)ccc4n3[C@@]3(c4noc(=O)[nH]4)C[C@@H]3C)c2=O)cc1F [Compound 611, 2-(4-(3-((4S,8R)-10-(5-((S)-2,2-dimethyltetrahydro-2H-pyran-4-yl)-1-((1S,2S)-2-methyl-1-(5-oxo-4,5-dihydro-1,2,4-oxadiazol-3-yl)cyclopropyl)-1H-indole-2-carbonyl)-2-(4-fluoro-3,5-dimethylphenyl)-4,5,6,7,8,9-hexahydro-2H-4,8-epiminocycloocta [c]pyrazol-3-yl)-2-oxo-2,3-dihydro-1H-imidazol-1-yl)-2-fluorophenyl)-N-methylacetamide] |
| 0.0019 | Cc1cc(-n2nc3c(c2-n2ccn(-c4ccc(N(C)C(=O)C5CC5)c(Cl)c4)c2=O)[C@@H]2CCC[C@H](C3)N2C(=O)c2cc3cc([C@H]4CCOC(C)(C)C4)ccc3n2[C@@]2(c3noc(=O)[nH]3)C[C@@H]2C)cc(C)c1F [Compound 612, N-(2-chloro-4-(3-((4S,8R)-10-(5-((S)-2,2-dimethyltetrahydro-2H-pyran-4-yl)-1-((1S,2S)-2-methyl-1-(5-oxo-4,5-dihydro-1,2,4-oxadiazol-3-yl)cyclopropyl)-1H-indole-2-carbonyl)-2-(4-fluoro-3,5-dimethylphenyl)-4,5,6,7,8,9-hexahydro-2H-4,8-epiminocycloocta [c]pyrazol-3-yl)-2-oxo-2,3-dihydro-1H-imidazol-1-yl)phenyl)-N-methylcyclopropanecarboxamide] |
| 0.0505 | Cc1cc(-n2nc3c(c2-n2ccn(-c4ccc5c(cnn5C)c4F)c2=O)[C@@H]2CC[C@H](C3)N2C(=O)c2cc3cc([C@H]4CCOC(C)(C)C4)ccc3n2[C@@]2(c3noc(=O)n3C)C[C@@H]2C)cc(C)c1F [Compound 613, 3-[(1S,2S)-1-[5-[(4S)-2,2-dimethyltetrahydropyran-4-yl]-2-[(1S,8R)-4-(4-fluoro-3,5-dimethyl-phenyl)-3-[3-(4-fluoro-1-methyl-indazol-5-yl)-2-oxo-imidazol-1-yl]-4,5,11-triazatricyclo[6.2.1.02,6]undeca-2,5-diene-11-carbonyl]indol-1-yl]-2-methyl-cyclopropyl]-4-methyl-1,2,4-oxadiazol-5-one] |
